Here are results for four substances from patent US6180600A, “CD8 antagonists” (Thomas Jefferson University, priority 1997, dated 2001).

Bridge positions count the residues as written; N and C are the ends. Ends that are not written are not given here.

The subject of experiment [1] is cytotoxic T-cell mediated lympholysis of 51Cr labelled EL-4 (H-2b) targets. Put plainly: 4 hour 51Cr release assay: inhibition of cytotoxic T-cell mediated lympholysis by peptide. It counts as cell-based, mouse (AKR/J anti C57BL/6 effectors). Conditions: for inhibition of specific lysis of targets: peptide 100, 10 or 1 μg/ml pre-incubated 30 minutes at 37° C. with effectors, Effector:Target 30:1, 10:1, 3:1, 1:1, 4 hour lysis. The method, then: The effect of peptide on cytotoxicity was measured in a 4 hour ^51 Cr release assay. H-2^b specific effectors were generated in a AKR/J (H-2^k) anti C57BL/6 (H-2^b) mixed lymphocyte reaction. The stimulators (C57BL/6 spleen cells) are gamma-irradiated at 1500 RADS. The targets were obtained from a tumor cell line, EL-4 (H-2^b), that were labelled with Na^51 CrO4. On Day 5 the effectors are harvested and counted. The peptide, at concentrations of 100 μg/ml, 10 μg/ml or 1 μg/ml, was first incubated for 30 minutes at 37° C. with effectors of varying numbers and then ^51 Cr labelled targets were added in a 4 hour specific lysis experiment. The target cell lysis was assessed at Effector:Target ratios of 30:1, 10:1, 3:1, and 1:1. Toxic effects of the peptide was determined by the % specific lysis above background that was obtained by incubating just peptide and labelled targets. No toxic effects were observed. Also, anti-CD8 monoclonal antibody that blocks the interaction resulting in lowered lympholysis is used in the assay.

For experiment [2], the system named is GVHD, primarily CD8+ based. Put plainly: Murine model of GVHD (B10.BR ATBM plus CD8+ T-cells into lethally irradiated host). It counts as in vivo, mouse. Conditions: 0.5 mgs peptide on Day 0, 3 and 6; FIG. 2. The method, then: Donor bone marrow is harvested from tibias and femurs of B10.BR mice. T-cells are eliminated from the bone marrow by treatment with anti-Thy1.2 and complement. Complement treatment for 2 cycles at 37° C. for 1 hour each results in more than 90% pure population of bone marrow cells. 10×10^6 T-cell depleted bone marrow [ATBM] cells are injected into the tail vein. Donor splenocytes undergo red blood cell lysis followed by B cell and CD4+ T-cells are depletion using anti-J1J and anti-RL147 antibodies, respectively. This purified CD8+ T-cell population from donors (5×10^6 cells) is injected into the tail vein of the animal. The host is lethally irradiated at 850 cGy approximately 6 hours prior to bone marrow transplantation. Characteristic features of murine acute GVHD include weight loss, diarrhea and loss of hair and death. Body weights were monitored before and after treatment. The treated mice were housed in sterile conditions and observed daily for acute GVHD-like reactions. Lethally irradiated mice reconstituted with ATBM only survive without signs of disease. Mice are treated with 0.5 mgs of SC2 peptide on Day 0, 3 and 6.

In experiment [3] the test system is activation of CTL in AKR/J anti C57BL/6 mixed lymphocyte reaction. The experiment can be described thus: Inhibition of activation/generation of cytotoxic T-cells: mixed lymphocyte reaction in presence of peptide, then 51Cr release. To be noted: peptide present during MLR; effectors washed on Day-6; 4-hour lysis of EL-4 targets. It is filed as cell-based, mouse. As for the experimental part: The effect of the peptide on the activation of CTL capable of lympholysis was determined by generating effector T-cells in AKR/J anti C57BL/6 mixed lymphocyte reaction in the presence of peptide. On Day-6, effectors are washed and then ^51 Cr-labelled EL-4 targets were added in a 4-hour specific lysis experiment.

Experiment [4] relates to allogeneic skin graft rejection. The experiment can be described thus: Murine skin transplantation (tail skin allograft onto bm1 recipients). It counts as in vivo, mouse.
Source text: Tail skin from C57BL/7 [H-2b] donor is grafted onto the ventral side of bm1 recipient tails. The donors are asphyxiated and 2×4 mm tail pieces are cut. These grafts are placed in 0.1% BSA in PBS on ice. Recipients are anesthetized in isoflurane chamber. While still anesthetized, grafting beds of 10×10 mm on the ventral side of the tail are cut. Two grafting beds per mouse are made, one for syngeneic graft and the other for the allogeneic graft. The grafts are turned 180' and placed in the beds such that the hair of the graft grows in the opposite direction. The grafts are trimmed if necessary such that they fit in the beds without skin hanging over the edge of the beds. A blunt glass tube is placed over the grafts and taped into place. This glass is removed on day 2 post-transplantation.
Five animals per treatment group are used and treatment is prior to transplantation. The untreated group is injected into the tail vein with 200 μl of PBS on Day 0.
Grafts are observed every other day for signs of rejection. […] Grafts are considered rejected due to mechanical failure if the grafts are rejected by Day 3.

Consider C-S-S-H-N-K-P-C (CSSHNKPC) [SC2], for which, in experiment [1], the “inhibition of specific lysis of targets” value is reported as “inhibits specific lysis of targets in a concentration dependent manner”. Also, the “onset of GVHD” value in experiment [2] is reported as “delays the onset of GVHD”. Further, the “inhibition of specific lysis of targets (effectors generated in presence of peptide)” value in experiment [3] was “show inhibition of specific lysis of targets in a concentration dependent manner”. For the same substance, the skin graft survival entry in experiment [4] (0.5 mgs/200 μl PBS in the tail vein on Day 0, FIG. 1) is given as “consistently prolonged skin graft survival with biological significance”.
For the substance “C-D-E-K-L-N-S-S-K-L-C (CDEKLNSSKLC; not fully specified; printed as C-D-E-K-L-N-S-S-K-L-C; cysteine pairing not given here) [SC11]”, the “inhibition of specific lysis of targets” value in experiment [1] is listed as “does not”. Also, the “inhibition of specific lysis of targets (effectors generated in presence of peptide)” value in experiment [3] is “show inhibition of specific lysis of targets in a concentration dependent manner”.
On to “CLSQNKPC (disulfide 1-8 (inferred)) [Wu-1, cyclic peptide consisting of human CD8 amino acids 52-57 with amino terminal and carboxy terminal cysteines]”, for which, in experiment [1] (51[Cr]-release assay as described in Example 2, FIG. 3), the inhibition of killing entry is “approximately 50%”.
In the case of “Wu-2: linear peptide consisting of human CD8 amino acids 37-47 (CQPRGAAASPC)”, in experiment [4] (skin transplantation assay of Example 4, FIG. 4), the “rejection of skin grafts” value is “significant delay in rejection”.
